Test results as given in patent publication US20120258980A1, “Antibacterial Agent for Drug-Resistant Bacteria, Method for Screening for Same, and Use of Same” (priority 2009, published 2012).
In brackets after ≈: the same amount, converted by molar mass. Like-named read-outs stand apart in the source and are kept apart here.

How the values were obtained:
[1] = system: VISA clinical isolates of MRSA (VI-MRSA) and of MSSA (VI-MSSA); assay: microbe, parasite or virus in culture; assay type: cell-based, Staphylococcus aureus
Method in brief: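 Strains were grown overnight at 37° C in TSB, adjusted in CAMHB to 0.3 absorbance at 578 nm and diluted 500-fold before equal-volume addition to compound dilutions.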

[2] = system: methicillin-susceptible S. aureus (MSSA), MRSA and mutants thereof; assay: MIC measurement, Test Example 3 (MSSA, MRSA and sequential gyrA/grlA quinolone-resistant mutants); assay type: cell-based, Staphylococcus aureus; conditions: Staphylococcus aureus
Method in brief: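 Clinical isolates and stepwise gyrA/grlA quinolone-resistant mutants grown overnight at 37° C in TSB, adjusted to A578 0.3 in CAMHB, diluted 500-fold and mixed 1:1 with drug dilutions in CAMHB.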

[3] = system: VRSA clinical isolates; assay: microbe, parasite or virus in culture; assay type: cell-based; conditions: Staphylococcus aureus
Description: Each of the bacterial strains listed in Table 1-1 was shake-cultured at 37° C. overnight in 4 mL of a medium (Tryptical Soy Broth: TSB, product of Becton Dickinson and Company). FDA209P was used as a control.
After completion of culturing, the resultant culture was suspended in a cation-adjusted Mueller Hinton Broth (CAMHB, product of Becton Dickinson and Company). Then, the obtained bacterial culture was adjusted in absorbance with the CAMHB so that the absorbance at 578 nm of the bacterial culture was adjusted to 0.3 measured by an absorption spectrometer. In addition, the resultant bacterial culture was 500-fold diluted with the CAMHB.
Each of the 500-fold diluted, pre-cultured bacterial cultures was added at 50 μL/well to the CAMHB containing the quinolones and the nybomycins at various concentrations (50 μL/well), followed by statically culturing at 37° C. overnight.
After completion of culturing, the growth of the bacteria was visually determined based on turbidity to measure MIC in each bacterial strain.
Here, the glycopeptides used were VCM and TEIC. The β-lactam used was OXA.

[4] = system: Enterococcus faecalis; assay: MIC measurement, Test Example 6 (enterococcus); assay type: cell-based; conditions: Enterococcus faecalis, read-out: MIC
Method in brief: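 E. faecalis strains, including vancomycin-resistant NCTC12201 and NCTC12203, pre-grown overnight in TSB at 37° C, set to A578 0.3 in CAMHB, then diluted 500-fold.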

Compound: C[C@@H]1CN(c2c(F)c(N)c3c(=O)c(C(=O)O)cn(C4CC4)c3c2F)C[C@H](C)N1 [SPFX, sparfloxacin]
- MIC ([1]; Staphylococcus aureus, 99/3700-W, VI-MRSA, The United Kingdom): 16 mg/L (≈ 40.8 µM)
- MIC ([1]; Staphylococcus aureus, 99/3759-V, VI-MRSA, The United Kingdom): 16 mg/L (≈ 40.8 µM)
- MIC ([1]; Staphylococcus aureus, 28160, VI-MRSA, South African Republic): 32 mg/L (≈ 81.5 µM)
- MIC ([1]; Staphylococcus aureus, 98141, VI-MRSA, France): 16 mg/L (≈ 40.8 µM)
- MIC ([1]; Staphylococcus aureus, A7 (JCSC4842), VI-MRSA, Taiwan): 8 mg/L (≈ 20.4 µM)
- MIC ([1]; Staphylococcus aureus, AMC11094, VI-MRSA, Korea): 32 mg/L (≈ 81.5 µM)
- MIC ([1]; Staphylococcus aureus, B7 (JCSC4852), VI-MRSA, Taiwan): 8 mg/L (≈ 20.4 µM)
- MIC ([1]; Staphylococcus aureus, BR1, VI-MRSA, Brazil): 32 mg/L (≈ 81.5 µM)
- MIC ([1]; Staphylococcus aureus, BR2, VI-MRSA, Brazil): 32 mg/L (≈ 81.5 µM)
- MIC ([1]; Staphylococcus aureus, BR3, VI-MRSA, Brazil): 32 mg/L (≈ 81.5 µM)
- MIC ([1]; Staphylococcus aureus, BR4, VI-MRSA, Brazil): 16 mg/L (≈ 40.8 µM)
- MIC ([1]; Staphylococcus aureus, BR5, VI-MRSA, Brazil): 16 mg/L (≈ 40.8 µM)
- MIC ([1]; Staphylococcus aureus, HIP06297, VI-MRSA, America): 8 mg/L (≈ 20.4 µM)
- MIC ([1]; Staphylococcus aureus, HIP06854, VI-MRSA, America): 16 mg/L (≈ 40.8 µM)
- MIC ([1]; Staphylococcus aureus, HIP07920, VI-MRSA, America): 16 mg/L (≈ 40.8 µM)
- MIC ([1]; Staphylococcus aureus, HIP07930, VI-MRSA, America): 16 mg/L (≈ 40.8 µM)
- MIC ([1]; Staphylococcus aureus, HIP08926, VI-MRSA, America): 16 mg/L (≈ 40.8 µM)
- MIC ([1]; Staphylococcus aureus, HIP09143, VI-MRSA, America): 16 mg/L (≈ 40.8 µM)
- MIC ([1]; Staphylococcus aureus, HIP09313, VI-MRSA, America): 8 mg/L (≈ 20.4 µM)
- MIC ([1]; Staphylococcus aureus, HIP09433, VI-MRSA, America): 64 mg/L (≈ 163 µM)
- MIC ([1]; Staphylococcus aureus, HIP09662, VI-MRSA, America): 16 mg/L (≈ 40.8 µM)
- MIC ([1]; Staphylococcus aureus, HIP09735, VI-MRSA, America): 16 mg/L (≈ 40.8 µM)
- MIC ([1]; Staphylococcus aureus, HIP09737, VI-MSSA, America): 16 mg/L (≈ 40.8 µM)
- MIC ([1]; Staphylococcus aureus, HIP09740, VI-MRSA, America): 16 mg/L (≈ 40.8 µM)
- MIC ([1]; Staphylococcus aureus, HIP10267, VI-MRSA, America): 16 mg/L (≈ 40.8 µM)
- MIC ([1]; Staphylococcus aureus, HIP10540, VI-MRSA, America): 16 mg/L (≈ 40.8 µM)
- MIC ([1]; Staphylococcus aureus, HIP12864, VI-MRSA, America): 32 mg/L (≈ 81.5 µM)
- MIC ([1]; Staphylococcus aureus, HIP13036, VI-MRSA, America): 4 mg/L (≈ 10.2 µM)
- MIC ([1]; Staphylococcus aureus, HIP13057, VI-MRSA, America): 8 mg/L (≈ 20.4 µM)
- MIC ([1]; Staphylococcus aureus, IL (HIP7737), VI-MRSA, America): 32 mg/L (≈ 81.5 µM)
- MIC ([1]; Staphylococcus aureus, JCSC7193, VI-MRSA, Thailand): 16 mg/L (≈ 40.8 µM)
- MIC ([1]; Staphylococcus aureus, JCSC7195, VI-MRSA, Thailand): 32 mg/L (≈ 81.5 µM)
- MIC ([1]; Staphylococcus aureus, JCSC7203, VI-MRSA, Thailand): 16 mg/L (≈ 40.8 µM)
- MIC ([1]; Staphylococcus aureus, LIM2, VI-MRSA, France): 16 mg/L (≈ 40.8 µM)
- MIC ([1]; Staphylococcus aureus, LY-1999-01, VI-MSSA, Oman): 2 mg/L (≈ 5.1 µM)
- MIC ([1]; Staphylococcus aureus, LY-1999-03, VI-MRSA, Oman): 8 mg/L (≈ 20.4 µM)
- MIC ([1]; Staphylococcus aureus, MI (HIP5827), VI-MRSA, America): 32 mg/L (≈ 81.5 µM)
- MIC ([1]; Staphylococcus aureus, MRSA / MSSA / NRS 76 / VISA, NRS76, VI-MSSA, America): 32 mg/L (≈ 81.5 µM)
- MIC ([1]; Staphylococcus aureus, MRSA / MSSA / NRS 79 / VISA, NRS79, VI-MRSA, America): 16 mg/L (≈ 40.8 µM)
- MIC ([1]; Staphylococcus aureus, MRSA / MSSA / NRS 118 / VISA, NRS118, VI-MRSA, America): 32 mg/L (≈ 81.5 µM)
- MIC ([1]; Staphylococcus aureus, MRSA / MSSA / NRS 126 / VISA, NRS126, VI-MRSA, America): 8 mg/L (≈ 20.4 µM)
- MIC ([1]; Staphylococcus aureus, Mu3, VI-MRSA, Japan): 16 mg/L (≈ 40.8 µM)
- MIC ([1]; Staphylococcus aureus, Mu50, VI-MRSA, Japan): 16 mg/L (≈ 40.8 µM)
- MIC ([1]; Staphylococcus aureus, NJ (HIP5836), VI-MRSA, America): 32 mg/L (≈ 81.5 µM)
- MIC ([1]; Staphylococcus aureus, P1V44, VI-MSSA, Belgium): 4 mg/L (≈ 10.2 µM)
- MIC ([1]; Staphylococcus aureus, PC, VI-MRSA, America): 16 mg/L (≈ 40.8 µM)
- MIC ([1]; Staphylococcus aureus, SA MER-S6, VI-MSSA, France): 0.25 mg/L (≈ 0.637 µM)
- MIC ([1]; Staphylococcus aureus, SA MER-S12, VI-MSSA, France): 0.25 mg/L (≈ 0.637 µM)
- MIC ([1]; Staphylococcus aureus, SA MER-S20, VI-MSSA, France): 0.125 mg/L (≈ 0.319 µM)
- MIC ([2]; FDA209P / MRSA / MSSA, FDA209P (MSSA), control, read-out: MIC): ≤ 0.063 mg/L
- MIC ([2]; MR5867 (MRSA), clinical isolate parent strain, no mutation): ≤ 0.063 mg/L
- MIC ([2]; MR5867-1, first-step quinolone-resistant mutant, grlA E84K): ≤ 0.063 mg/L
- MIC ([2]; MS5935 (MSSA), clinical isolate parent strain, no mutation, read-out: MIC): ≤ 0.063 mg/L
- MIC ([2]; MS5935-1, first-step quinolone-resistant mutant, grlA S80F): ≤ 0.063 mg/L
- MIC ([2]; MS5935-3, third-step mutant, further grlA E84K): 32 mg/L (≈ 81.5 µM)
- MIC ([2]; MS5952 (MSSA), clinical isolate parent strain, no mutation, read-out: MIC): ≤ 0.063 mg/L
- MIC ([3]; VRS1, VRSA, Michigan): 8 mg/L (≈ 20.4 µM)
- MIC ([3]; VRS2, VRSA, Pennsylvania): 8 mg/L (≈ 20.4 µM)
- MIC ([3]; VRS3, VRSA, New York): 16 mg/L (≈ 40.8 µM)
- MIC ([3]; VRS4, VRSA, New York): 16 mg/L (≈ 40.8 µM)
- MIC ([3]; VRS5, VRSA, Michigan): 128 mg/L (≈ 326 µM)
- MIC ([3]; VRS6, VRSA, Michigan): 16 mg/L (≈ 40.8 µM)
- MIC ([3]; VRS7, VRSA, Michigan): 16 mg/L (≈ 40.8 µM)
- MIC ([4]; E. faecalis 36-15672, quinolone-susceptible enterococci): 1 mg/L (≈ 2.55 µM)
- MIC ([4]; E. faecalis 36-15673, quinolone-susceptible enterococci): 1 mg/L (≈ 2.55 µM)
- MIC ([4]; E. faecalis 36-15678, quinolone-susceptible enterococci): 0.5 mg/L (≈ 1.27 µM)
- MIC ([4]; E. faecalis 36-15686, quinolone-resistant enterococci): 128 mg/L (≈ 326 µM)
- MIC ([4]; E. faecalis 36-15688, quinolone-susceptible enterococci): 0.5 mg/L (≈ 1.27 µM)
- MIC ([4]; E. faecalis 36-15694, quinolone-resistant enterococci): 64 mg/L (≈ 163 µM)
- MIC ([4]; E. faecalis 36-15696, quinolone-susceptible enterococci): 0.5 mg/L (≈ 1.27 µM)
- MIC ([4]; E. faecalis 36-15703, quinolone-resistant enterococci): 32 mg/L (≈ 81.5 µM)
- MIC ([4]; E. faecalis 36-15716, quinolone-resistant enterococci): 64 mg/L (≈ 163 µM)
- MIC ([4]; E. faecalis 36-15718, quinolone-susceptible enterococci): 0.5 mg/L (≈ 1.27 µM)
- MIC ([4]; E. faecalis 36-15720, quinolone-susceptible enterococci): 1 mg/L (≈ 2.55 µM)
- MIC ([4]; E. faecalis 36-15722, quinolone-resistant enterococci): 64 mg/L (≈ 163 µM)
- MIC ([4]; E. faecalis 36-15726, quinolone-resistant enterococci): 64 mg/L (≈ 163 µM)
- MIC ([4]; E. faecalis 36-15730, quinolone-susceptible enterococci): 1 mg/L (≈ 2.55 µM)
- MIC ([4]; E. faecalis 36-15736, quinolone-susceptible enterococci): 0.5 mg/L (≈ 1.27 µM)
- MIC ([4]; E. faecalis 36-15741, quinolone-susceptible enterococci): 1 mg/L (≈ 2.55 µM)
- MIC ([4]; NCTC 12201 / VRE, E. faecalis NCTC12201, vancomycin-resistant (VRE), quinolone-susceptible enterococci): 0.5 mg/L (≈ 1.27 µM)
- MIC ([4]; NCTC 12203 / VRE, E. faecalis NCTC12203, vancomycin-resistant (VRE), quinolone-susceptible enterococci): 0.5 mg/L (≈ 1.27 µM)
